Reference: patent US11673910B2, “Macrolides with modified desosamine sugars and uses thereof” (Zikani Therapeutics, Inc., priority 2017, dated 2023)
≈ marks a conversion by molar mass, not a printed value. Values belong to the compound of their own block, whether it stands above or below them.

Columns and labels:
Assay type in all cases: cell-based
[1] = tested on: P. aeruginosa strain MP-3; test: Broth dilution MIC determination (CLSI) against P. aeruginosa strain MP-3; details: Pseudomonas aeruginosa, MP3
In short: (§1)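 MICs of the macrolides were determined by standard CLSI broth dilution. Values are binned: +++ for ≤4 mg/L, ++ for ≥8 and <32 mg/L, + for ≥32 mg/L.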

[2] = tested on: K. pneumoniae strain MP-548; test: Broth dilution MIC determination (CLSI) against K. pneumoniae strain MP-548; details: Klebsiella pneumoniae, MP548
In short: as §1

[3] = tested on: S. aureus strain MP-12; test: Broth dilution MIC determination (CLSI) against S. aureus strain MP-12; details: Staphylococcus aureus, MP12, strain MP-12
In short: as §1

[4] = tested on: E. coli strain MP-4; test: Broth dilution MIC determination (CLSI) against E. coli strain MP-4; details: Escherichia coli, MP4
In short: as §1

[5] = tested on: A. baumannii strain MP-15; test: Broth dilution MIC determination (CLSI) against A. baumannii strain MP-15; details: Acinetobacter baumannii, MP15
In short: as §1

Compound: CC[C@H]1OC(=O)C(C)C(=O)[C@H](C)[C@@H](O[C@@H]2OC(CNCc3ccc(N(C)C)cc3)CC(N(C)C)C2O)[C@](C)(OC)C[C@@H](C)CN[C@H](C)[C@H]2NC(=O)O[C@@]21C (stereo partly drawn) [Compound 44]
MIC [1]: ≥ 32 µg/mL | MIC [2]: ≥ 32 µg/mL | MIC [3]: ≥ 32 µg/mL | MIC [4]: ≤ 4 µg/mL | MIC [5]: ≥ 32 µg/mL

Compound: CC[C@H]1OC(=O)C(C)C(=O)[C@H](C)[C@@H](O[C@@H]2OC(CNCc3ccc(C(F)(F)F)cc3)CC(N(C)C)C2O)[C@](C)(OC)C[C@@H](C)CN[C@H](C)[C@H]2NC(=O)O[C@@]21C (stereo partly drawn) [Compound 35]
MIC [1]: ≥ 32 µg/mL | MIC [2]: ≥ 32 µg/mL | MIC [3]: ≥ 32 µg/mL | MIC [4]: ≤ 4 µg/mL | MIC [5]: 8 to 32 µg/mL (≈ 10.2 to 40.7 µM)

Compound: CC[C@H]1OC(=O)C(C)C(=O)[C@H](C)[C@@H](OC2OC(CNC3CCC3)CC(N(C)C)C2O)[C@](C)(OC)C[C@@H](C)CN[C@H](C)[C@H]2NC(=O)O[C@@]21C (stereo partly drawn) [Compound 120, 3-Descladinosyl-3-oxo-6-O-methyl-N9a-desmethyl-11,12-dideoxy-12,11-(oxycarbonylimino)-6′-cyclobutylamino Azithromycin]
MIC [1]: ≥ 32 µg/mL | MIC [2]: ≤ 4 µg/mL | MIC [3]: ≥ 32 µg/mL | MIC [4]: ≤ 4 µg/mL | MIC [5]: ≥ 32 µg/mL

Compound: CC[C@H]1OC(=O)C(C)C(=O)[C@H](C)[C@@H](O[C@@H]2OC(CNCc3cncc(-n4cncn4)n3)CC(N(C)C)C2O)[C@](C)(OC)C[C@@H](C)CN[C@H](C)[C@H]2NC(=O)O[C@@]21C (stereo partly drawn) [Compound 26]
MIC [1]: ≥ 32 µg/mL | MIC [2]: ≥ 32 µg/mL | MIC [3]: ≥ 32 µg/mL | MIC [4]: ≥ 32 µg/mL | MIC [5]: ≥ 32 µg/mL

Compound: CC[C@H]1OC(=O)C(C)C(=O)[C@H](C)[C@@H](O[C@@H]2OC(CNCc3cn(-c4cncnc4)nn3)CC(N(C)C)C2O)[C@](C)(OC)C[C@@H](C)CN[C@H](C)[C@H]2NC(=O)O[C@@]21C (stereo partly drawn) [Compound 24]
MIC [1]: ≥ 32 µg/mL | MIC [2]: ≥ 32 µg/mL | MIC [3]: ≥ 32 µg/mL | MIC [4]: ≥ 32 µg/mL | MIC [5]: ≥ 32 µg/mL

Compound: CC[C@H]1OC(=O)C(C)C(=O)[C@H](C)[C@@H](O[C@@H]2OC(CNCc3ccccc3F)CC(N(C)C)C2O)[C@](C)(OC)C[C@@H](C)CN[C@H](C)[C@H]2NC(=O)O[C@@]21C (stereo partly drawn) [Compound 29]
MIC [1]: ≥ 32 µg/mL | MIC [2]: ≥ 32 µg/mL | MIC [3]: ≥ 32 µg/mL | MIC [4]: ≤ 4 µg/mL | MIC [5]: ≥ 32 µg/mL

Compound: CC[C@H]1OC(=O)[C@]2(C)CCO[C@](C)(C[C@@H](C)CN[C@H](C)[C@H]3NC(=O)O[C@@]31C)[C@H](O[C@@H]1O[C@H](CNCc3cccnc3)C[C@H](N(C)C)[C@H]1O)[C@@H](C)C2=O [Compound 200]
MIC [1]: ≥ 32 µg/mL | MIC [2]: ≥ 32 µg/mL | MIC [3]: 8 to 32 µg/mL (≈ 10.9 to 43.7 µM) | MIC [4]: 8 to 32 µg/mL (≈ 10.9 to 43.7 µM) | MIC [5]: ≥ 32 µg/mL

Compound: CC[C@H]1OC(=O)C(C)C(=O)[C@H](C)[C@@H](O[C@@H]2OC(CNCc3cccc(Oc4cnccn4)c3)CC(N(C)C)C2O)[C@](C)(OC)C[C@@H](C)CN[C@H](C)[C@H]2NC(=O)O[C@@]21C (stereo partly drawn) [Compound 22]
MIC [1]: ≥ 32 µg/mL | MIC [2]: ≥ 32 µg/mL | MIC [3]: ≥ 32 µg/mL | MIC [4]: 8 to 32 µg/mL (≈ 9.84 to 39.4 µM) | MIC [5]: ≥ 32 µg/mL

Compound: CC[C@H]1OC(=O)[C@@](C)(F)C(=O)[C@H](C)[C@@H](O[C@@H]2OC(COCCO)CC(N(C)C)C2O)[C@](C)(OC)C[C@@H](C)C(=O)[C@H](C)[C@H]2NC(=O)O[C@@]21C (stereo partly drawn) [Compound 103]
MIC [1]: ≥ 32 µg/mL | MIC [2]: ≥ 32 µg/mL | MIC [3]: ≤ 4 µg/mL | MIC [4]: ≥ 32 µg/mL | MIC [5]: ≥ 32 µg/mL

Compound: CC[C@H]1OC(=O)C(C)C(=O)[C@H](C)[C@@H](OC2OC(CNCC(F)(F)F)CC(N(C)C)C2O)[C@](C)(OC)C[C@@H](C)CN[C@H](C)[C@H]2NC(=O)O[C@@]21C (stereo partly drawn) [Compound 112, 3-Descladinosyl-3-oxo-6-O-methyl-N9a-desmethyl-11,12-dideoxy-12,11-(oxycarbonylimino)-6′-(2-trifluoroethylamino) Azithromycin]
MIC [1]: ≥ 32 µg/mL | MIC [2]: 8 to 32 µg/mL (≈ 11.3 to 45 µM) | MIC [3]: ≤ 4 µg/mL | MIC [4]: ≤ 4 µg/mL | MIC [5]: 8 to 32 µg/mL (≈ 11.3 to 45 µM)

Results, then the compound that gave them:

MIC [1]: ≥ 32 µg/mL | MIC [2]: ≥ 32 µg/mL | MIC [3]: ≥ 32 µg/mL | MIC [4]: ≤ 4 µg/mL | MIC [5]: ≥ 32 µg/mL
Compound: CC[C@H]1OC(=O)C(C)C(=O)[C@H](C)[C@@H](OC2OC(CN3CCC(C)(C)CC3)CC(N(C)C)C2O)[C@](C)(OC)C[C@@H](C)CN[C@H](C)[C@H]2NC(=O)O[C@@]21C (stereo partly drawn) [Compound 138, 3-Desdadinosyl-3-oxo-6-O-methyl-N9a-desmethyl-11,12-dideoxy-12,11-(oxycarbonylimino)-6′-(4″,4″-dimethylpiperidin-1-yl) Azithromycin]

MIC [1]: ≥ 32 µg/mL | MIC [2]: 8 to 32 µg/mL (≈ 11.3 to 45 µM) | MIC [3]: ≥ 32 µg/mL | MIC [4]: ≤ 4 µg/mL | MIC [5]: ≥ 32 µg/mL
Compound: CC[C@H]1OC(=O)C(C)C(=O)[C@H](C)[C@@H](OC2OC(CN3CCCCCC3)CC(N(C)C)C2O)[C@](C)(OC)C[C@@H](C)CN[C@H](C)[C@H]2NC(=O)O[C@@]21C (stereo partly drawn) [Compound 124, 3-Desdadinosyl-3-oxo-6-O-methyl-N9a-desmethyl-11,12-dideoxy-12,11-(oxycarbonylimino)-6′-(1-azepanyl) Azithromycin]

MIC [1]: ≥ 32 µg/mL | MIC [2]: 8 to 32 µg/mL (≈ 11.6 to 46.6 µM) | MIC [3]: 8 to 32 µg/mL (≈ 11.6 to 46.6 µM) | MIC [4]: ≤ 4 µg/mL | MIC [5]: ≥ 32 µg/mL
Compound: CC[C@H]1OC(=O)C(C)C(=O)[C@H](C)[C@@H](OC2OC(CN3CC(F)C3)CC(N(C)C)C2O)[C@](C)(OC)C[C@@H](C)CN[C@H](C)[C@H]2NC(=O)O[C@@]21C (stereo partly drawn) [Compound 143, 3-Descladinosyl-3-oxo-6-O-methyl-N9a-desmethyl-11,12-dideoxy-12,11-(oxycarbonylimino)-6′-(3″-fluoroazetidin-1″-yl) Azithromycin]

MIC [1]: ≥ 32 µg/mL | MIC [2]: ≥ 32 µg/mL | MIC [3]: ≥ 32 µg/mL | MIC [4]: ≥ 32 µg/mL | MIC [5]: ≥ 32 µg/mL
Compound: CC[C@H]1OC(=O)C(C)C(=O)[C@H](C)[C@@H](O[C@@H]2O[C@H](CN(C)C(=O)CNC)CC(N(C)C)[C@H]2O)[C@](C)(OC)C[C@@H](C)CN[C@H](C)[C@H]2NC(=O)O[C@@]21C (stereo partly drawn) [Compound 173, 3-Descladinosyl-3-oxo-6-O-methyl-N9a-desmethyl-11,12-dideoxy-12,11-(oxycarbonylimino)-6′-N-methyl-2″-methylamino-acetamide Azithromycin]

MIC [1]: ≥ 32 µg/mL | MIC [2]: 8 to 32 µg/mL (≈ 11.9 to 47.7 µM) | MIC [3]: ≥ 32 µg/mL | MIC [4]: ≤ 4 µg/mL | MIC [5]: ≥ 32 µg/mL
Compound: CC[C@H]1OC(=O)C(C)C(=O)[C@H](C)[C@@H](O[C@@H]2O[C@H]([C@H](C)N(C)C)CC(N(C)C)[C@H]2O)[C@](C)(OC)C[C@@H](C)CN[C@H](C)[C@H]2NC(=O)O[C@@]21C (stereo partly drawn) [Compound 175, 3-Descladinosyl-3-oxo-6-O-methyl-N9a-desmethyl-11,12-dideoxy-12,11-(oxycarbonylimino)-6′-((S)-(dimethylamino)ethyl) Azithromycin]

MIC [1]: ≥ 32 µg/mL | MIC [2]: ≥ 32 µg/mL | MIC [3]: ≥ 32 µg/mL | MIC [4]: 8 to 32 µg/mL (≈ 12 to 47.8 µM) | MIC [5]: ≥ 32 µg/mL
Compound: CC[C@H]1OC(=O)C(C)C(=O)[C@H](C)[C@@H](OC2OC(CN3CCC3)CC(N(C)C)C2O)[C@](C)(OC)C[C@@H](C)CN[C@H](C)[C@H]2NC(=O)O[C@@]21C (stereo partly drawn) [Compound 121, 3-Descladinosyl-3-oxo-6-O-methyl-N9a-desmethyl-11,12-dideoxy-12,11-(oxycarbonylimino)-6′-(1-azetininyl) Azithromycin]

MIC [1]: ≥ 32 µg/mL | MIC [2]: ≥ 32 µg/mL | MIC [3]: ≥ 32 µg/mL | MIC [4]: ≥ 32 µg/mL | MIC [5]: ≥ 32 µg/mL
Compound: CO[C@]1(C)C[C@@H](C)CN[C@H](C)[C@H]2NC(=O)O[C@]2(C)[C@@H](C)OC(=O)C(C)C(=O)[C@H](C)[C@H]1OC1OC(CNCC2CC2)CC(N(C)C)C1O (stereo partly drawn) [Compound 148, 3-Descladinosyl-3-oxo-6-O-methyl-N9a-desmethyl-11,12-dideoxy-12,11-(oxycarbonylimino)-6′-cyclopropylmethylamino-13-methyl Azithromycin]

MIC [1]: ≥ 32 µg/mL | MIC [2]: ≥ 32 µg/mL | MIC [3]: ≥ 32 µg/mL | MIC [4]: ≤ 4 µg/mL | MIC [5]: ≥ 32 µg/mL
Compound: CO[C@]1(C)C[C@@H](C)CN[C@H](C)[C@H]2NC(=O)O[C@]2(C)[C@@H](C)OC(=O)C(C)C(=O)[C@H](C)[C@H]1OC1OC(CN2CCCCC2)CC(N(C)C)C1O (stereo partly drawn) [Compound 149, 3-Descladinosyl-3-oxo-6-O-methyl-N9a-desmethyl-11,12-dideoxy-12,11-(oxycarbonylimino)-6′-piperidinyl-13-methyl Azithromycin]

MIC [1]: ≥ 32 µg/mL | MIC [2]: ≥ 32 µg/mL | MIC [3]: ≥ 32 µg/mL | MIC [4]: 8 to 32 µg/mL (≈ 12.2 to 48.7 µM) | MIC [5]: ≥ 32 µg/mL
Compound: CC[C@H]1OC(=O)C(C)C(=O)[C@H](C)[C@@H](OC2OC(C(=O)NC)CC(N(C)C)C2O)[C@](C)(OC)C[C@@H](C)CN[C@H](C)[C@H]2NC(=O)O[C@@]21C (stereo partly drawn) [Compound 166, 3-Descladinosyl-3-oxo-6-O-methyl-N9a-desmethyl-11,12-dideoxy-12,11-(oxycarbonylimino)-5′-desmethyl-5′-(N-methylcarboxamido) Azithromycin]

MIC [1]: ≥ 32 µg/mL | MIC [2]: ≥ 32 µg/mL | MIC [3]: ≥ 32 µg/mL | MIC [4]: ≥ 32 µg/mL | MIC [5]: ≥ 32 µg/mL
Compound: CC[C@H]1OC(=O)C(C)C(=O)[C@H](C)[C@@H](O[C@@H]2O[C@H](CN)CC(N(C)C)[C@H]2O)[C@](C)(OC)C[C@@H](C)CN[C@H](C)[C@H]2NC(=O)O[C@@]21C (stereo partly drawn) [Compound 174, 3-Descladinosyl-3-oxo-6-O-methyl-N9a-desmethyl-11,12-dideoxy-12,11-(oxycarbonylimino)-11-methyl-6′-amino Azithromycin]

MIC [1]: ≥ 32 µg/mL | MIC [2]: 8 to 32 µg/mL (≈ 11.1 to 44.3 µM) | MIC [3]: 8 to 32 µg/mL (≈ 11.1 to 44.3 µM) | MIC [4]: ≤ 4 µg/mL | MIC [5]: ≤ 4 µg/mL
Compound: CC[C@H]1OC(=O)C(C)C(=O)[C@H](C)[C@@H](OC2OC(CN3CCCCC34CC4)CC(N(C)C)C2O)[C@](C)(OC)C[C@@H](C)CN[C@H](C)[C@H]2NC(=O)O[C@@]21C (stereo partly drawn) [Compound 135, 3-Descladinosyl-3-oxo-6-O-methyl-N9a-desmethyl-11,12-dideoxy-12,11-(oxycarbonylimino)-6′-(4″-azaspiro[2″.5″]octanyl)amino Azithromycin]
